How the values were obtained:
[1] = target: T1, CMP-Sia (Mus musculus, UniProt Q61420); experiment: CPM thermal stability assay, CMP-Sia; parameters: species or system murine; conditions: CMC+0.04 wt %, 30° C., under the conditions used for the gel filtration analysis
T1 construct: GFP-His (C, cleaved yes); made in house; host or cells: Saccharomyces cerevisiae
T1 sequence (Q61420 1-336): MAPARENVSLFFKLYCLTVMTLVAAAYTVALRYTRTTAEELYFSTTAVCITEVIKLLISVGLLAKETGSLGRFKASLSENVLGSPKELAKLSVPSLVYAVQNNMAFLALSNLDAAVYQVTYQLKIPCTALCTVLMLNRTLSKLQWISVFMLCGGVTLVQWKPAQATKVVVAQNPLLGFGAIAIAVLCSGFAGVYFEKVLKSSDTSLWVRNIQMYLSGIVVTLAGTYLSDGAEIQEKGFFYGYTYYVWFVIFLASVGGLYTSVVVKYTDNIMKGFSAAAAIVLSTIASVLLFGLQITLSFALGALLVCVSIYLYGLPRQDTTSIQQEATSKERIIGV
Procedure: FIG. 6. CPM assays for (a) CMP-Sia, (b) GlpG and (c) SQR solubilized with each new amphiphile or DDM. The coumarin moiety of CPM is internally quenched by the maleimide unit, but the coumarin becomes fluorescent following reaction with Cys side chain thiol groups exposed upon protein unfolding. The CPM assay can therefore be used to monitor the extent of protein unfolding. CMP-Sia and GlpG were initially extracted from the native membrane with 1% DDM in PBS, 10 mM imidazole (pH 8.0), 150 mM NaCl, 10% glycerol, and isolated in 20 mM Tris (pH 7.5), 150 mM NaCl containing 0.03% DDM. SQR was extracted from the membrane using 2% C12E9 in 20 mM potassium phosphate (pH 7.4), 0.2 M EDTA, and isolated in 20 mM Tris (pH 7.6), 0.2% decyl-β-D-maltoside (DM). […] The “Relative amount of folded protein” in each case is defined as follows: 100% corresponds to the fluorescence emission intensity at time=0 min; 0% corresponds to the lowest value measured among the amphiphile-treated samples for each protein during the 130 min assay period. […] For GlpG and SQR, 0% is defined by the lowest value measured for protein solubilized with DDM. […]
CMP-Sia and GlpG were expressed as fusion proteins with a C-terminal GFP-His tag in Saccharomyces cerevisiae and Escherichia coli respectively. […]

[2] = target: T2, β2AR WT (Homo sapiens, UniProt P07550); experiment: Extraction of β2AR WT from insect cell membranes; conditions: 1 or 2 wt %; western blotting
T2 construct: made in house; host or cells: Sf9 insect cells (baculovirus); lysed cells and membranes extracted directly with amphiphile
Procedure: The favorable MelB extraction performance of GDN led to the examination of this amphiphile for extraction of other IMPs. […] DDM and GDN were used to extract a CMP-Sia fusion protein bearing green fluorescent protein (GFP) at the C-terminus, after expression in Saccharomyces cerevisiae; the amount of solubilized protein was estimated by total fluorescence. GDN (2 wt %), DDM (1 wt %) and OG (1 wt %) gave ˜70%, ˜80% and ˜50% extraction yields, respectively.
The procedure was performed according to the protocol reported by Chae and coworkers (Nat. Methods 2010, 7, 1003-1008).
A gene encoding amino-terminally FLAG epitope tagged β2AR was expressed in Sf9 cells by baculovirus, with no ligand present during culture. Cells were infected at a density of 4×10^6 cells/mL and then cultured for 48 hours prior to harvesting by centrifugation. Cells were resuspended and lysed by osmotic shock with a low ionic strength buffer (20 mM Tris pH 7.5, 1 mM EDTA). The lysed cells were aliquoted 35 mg per aliquot, then frozen. For extraction tests, 300 μL of solubilization buffer (20 mM HEPES pH 7.5, 100 mM NaCl) containing each amphiphile was added to each aliquot, which was then homogenized by pipet followed by grinding with a glass dounce tissue homogenizer. After two-hour incubation at 4° C., samples were centrifuged at maximum speed in a tabletop microcentrifuge to pellet insoluble material. […]

T2 sequence (P07550 whole entry): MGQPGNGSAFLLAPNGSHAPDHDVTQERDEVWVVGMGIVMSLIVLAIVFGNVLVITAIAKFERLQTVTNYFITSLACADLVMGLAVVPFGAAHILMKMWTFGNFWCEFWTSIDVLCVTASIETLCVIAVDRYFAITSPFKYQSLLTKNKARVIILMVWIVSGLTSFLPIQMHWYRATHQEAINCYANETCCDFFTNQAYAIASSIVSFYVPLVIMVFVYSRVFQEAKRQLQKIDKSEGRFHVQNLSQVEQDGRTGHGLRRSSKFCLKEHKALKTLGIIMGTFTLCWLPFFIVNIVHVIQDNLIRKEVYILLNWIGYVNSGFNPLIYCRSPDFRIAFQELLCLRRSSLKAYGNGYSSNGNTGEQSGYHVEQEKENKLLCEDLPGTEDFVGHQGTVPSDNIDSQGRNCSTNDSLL

SMILES	Relative amount of folded protein (CPM assay), CMP-Sia [1] [%]	β2AR WT extraction compared with 1 wt % DDM [2]
CCCCCCCCCCCCO[C@@H]1O[C@H](CO)[C@@H](O[C@H]2O[C@H](CO)[C@@H](O)[C@H](O)[C@H]2O)[C@H](O)[C@H]1O [DDM, dodecyl-β-D-maltoside, reference compound]	~20	–
C[C@@H]1CC[C@@]2(OC1)O[C@H]1C[C@H]3[C@@H]4CC=C5C[C@@H](OCCC(CO[C@@H]6OC(CO)[C@@H](O[C@H]7OC(CO)[C@@H](O)C(O)C7O)C(O)C6O)CO[C@@H]6OC(CO)[C@@H](O[C@H]7OC(CO)[C@@H](O)C(O)C7O)C(O)C6O)CC[C@]5(C)[C@H]4CC[C@]3(C)[C@@H]1[C@@H]2C (some centres unmarked) [GDN, glyco-diosgenin]	–	more effective than was 1 wt % DDM

— patent US9556217B2, “Amphiphilic compounds” (WISCONSIN ALUMNI RESEARCH FOUNDATION, priority 2012, dated 2017)
